Experimental data published in ChEMBL document CHEMBL4428063, “Novel Pyrimidine Toll-like Receptor 7 and 8 Dual Agonists to Treat Hepatitis B Virus” (J Med Chem, 2016).
The source made the active and inactive calls. No cut-off for these calls is given here.

What was measured:
[1] = Fraction absorbed in Sprague-Dawley rat plasma at 10 mg/kg, po; format: ADME, organism-based; settings: read-out: Fabs
[2] = Intrinsic clearance in cynomolgus monkey liver microsomes assessed per mg protein at 1 uM measured after 60 mins; format: ADME, Macaca fascicularis, Microsome; settings: read-out: CLH
[3] = Intrinsic clearance in C57Bl/6 mouse hepatocytes at 1 uM measured after 120 mins; format: ADME, cell-based, Hepatocyte; settings: 2 h
[4] = Oral bioavailability in cynomolgus monkey at 30 mg/kg, measured after 24 hrs; format: ADME, organism-based, Macaca fascicularis; settings: in vivo
[5] = target: Toll-like receptor 2 (Homo sapiens) (UniProt O60603); assay: Agonist activity at wild-type human TLR2 expressed in HEK293 cells up to 25 uM measured after 6 hrs by NF-kappaB luciferase reporter gene assay; format: cell-based
[6] = Cmax in cynomolgus monkey plasma at 3 mg/kg, administered through oral gavage measured after 24 hrs; format: ADME, organism-based, Macaca fascicularis; set-up: dose 3 mg/kg, route oral
[7] = Intrinsic clearance in human hepatocytes at 1 uM measured after 120 mins; format: ADME, cell-based, Hepatocyte; settings: 2 h
[8] = target: T1, Toll-like receptor 9 (Homo sapiens) (UniProt Q9NR96); assay: Agonist activity at wild-type human TLR9 expressed in HEK293 cells up to 25 uM measured after 6 hrs by NF-kappaB luciferase reporter gene assay; format: cell-based
T1 sequence (whole entry): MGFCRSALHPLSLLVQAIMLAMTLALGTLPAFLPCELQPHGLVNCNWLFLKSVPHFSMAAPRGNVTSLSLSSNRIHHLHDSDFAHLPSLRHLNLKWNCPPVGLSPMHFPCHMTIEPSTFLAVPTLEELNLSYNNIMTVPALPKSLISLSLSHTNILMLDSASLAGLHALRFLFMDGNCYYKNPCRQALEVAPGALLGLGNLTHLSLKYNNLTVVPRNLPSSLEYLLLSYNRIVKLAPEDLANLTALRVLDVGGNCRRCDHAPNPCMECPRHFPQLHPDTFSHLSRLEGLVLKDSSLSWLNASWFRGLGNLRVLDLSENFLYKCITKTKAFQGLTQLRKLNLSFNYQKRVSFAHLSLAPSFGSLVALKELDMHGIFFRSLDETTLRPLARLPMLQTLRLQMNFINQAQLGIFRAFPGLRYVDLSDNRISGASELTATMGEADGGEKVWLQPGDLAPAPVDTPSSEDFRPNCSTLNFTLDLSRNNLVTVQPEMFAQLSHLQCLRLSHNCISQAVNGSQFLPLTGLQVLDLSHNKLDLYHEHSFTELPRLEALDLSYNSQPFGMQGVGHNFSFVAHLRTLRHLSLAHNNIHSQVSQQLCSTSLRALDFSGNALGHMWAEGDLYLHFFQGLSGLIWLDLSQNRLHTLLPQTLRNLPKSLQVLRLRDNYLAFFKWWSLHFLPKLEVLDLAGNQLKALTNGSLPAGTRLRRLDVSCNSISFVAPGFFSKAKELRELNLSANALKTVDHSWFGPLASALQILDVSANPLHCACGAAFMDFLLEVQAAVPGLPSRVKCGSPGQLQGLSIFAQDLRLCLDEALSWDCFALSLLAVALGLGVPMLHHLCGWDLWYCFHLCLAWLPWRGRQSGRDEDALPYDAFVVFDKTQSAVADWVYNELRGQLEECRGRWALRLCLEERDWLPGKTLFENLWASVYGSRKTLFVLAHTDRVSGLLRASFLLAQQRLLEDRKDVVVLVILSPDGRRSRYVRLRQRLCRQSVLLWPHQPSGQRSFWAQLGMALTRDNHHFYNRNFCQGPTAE

[9] = Intrinsic clearance in dog liver microsomes assessed per mg protein at 1 uM measured after 60 mins; format: ADME, Canis lupus familiaris, Microsome; settings: read-out: CLH
[10] = Cmax in cynomolgus monkey plasma at 30 mg/kg, administered through oral gavage measured after 24 hrs; format: ADME, organism-based, Macaca fascicularis; set-up: dose 30 mg/kg, route oral
[11] = Intrinsic clearance in Sprague-Dawley rat hepatocytes at 1 uM measured after 120 mins; format: ADME, cell-based, Hepatocyte; settings: 2 h
[12] = Intrinsic clearance in Sprague-Dawley rat liver microsomes assessed per mg protein at 1 uM measured after 60 mins; format: ADME, Microsome; settings: read-out: CLH

Sequence of Toll-like receptor 2 (Homo sapiens) (O60603 whole entry): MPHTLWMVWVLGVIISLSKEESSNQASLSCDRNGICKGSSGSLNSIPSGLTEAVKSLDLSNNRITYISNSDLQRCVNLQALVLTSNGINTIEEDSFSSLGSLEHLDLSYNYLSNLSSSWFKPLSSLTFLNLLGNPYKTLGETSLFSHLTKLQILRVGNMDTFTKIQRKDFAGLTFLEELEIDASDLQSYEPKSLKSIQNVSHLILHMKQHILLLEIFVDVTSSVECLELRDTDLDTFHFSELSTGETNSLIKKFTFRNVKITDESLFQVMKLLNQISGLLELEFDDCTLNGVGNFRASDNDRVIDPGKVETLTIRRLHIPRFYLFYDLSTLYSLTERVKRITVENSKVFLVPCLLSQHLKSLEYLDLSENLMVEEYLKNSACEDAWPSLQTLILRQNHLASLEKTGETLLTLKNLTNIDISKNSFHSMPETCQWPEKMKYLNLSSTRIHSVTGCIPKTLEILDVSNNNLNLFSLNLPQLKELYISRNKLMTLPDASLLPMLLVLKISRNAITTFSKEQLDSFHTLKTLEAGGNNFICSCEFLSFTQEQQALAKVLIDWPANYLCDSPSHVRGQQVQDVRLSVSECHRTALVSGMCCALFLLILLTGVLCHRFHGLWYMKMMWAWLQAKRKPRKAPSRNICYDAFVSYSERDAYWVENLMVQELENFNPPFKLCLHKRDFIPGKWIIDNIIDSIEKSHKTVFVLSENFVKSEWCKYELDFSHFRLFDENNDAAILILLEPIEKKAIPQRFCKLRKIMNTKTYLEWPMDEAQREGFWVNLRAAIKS

Fa [1]: 55% | microsomal CLint at 1 µM [2]: 8 µL/min/mg | CLH [3]: 20 µL/min | bioavailability [4]: 3.9% | Activity [5]: inactive | Cmax [6]: 7 ng/mL | CLH [7]: 18 µL/min | Activity [8]: inactive | microsomal CLint at 1 µM [9]: 7 µL/min/mg | Cmax [10]: 355 ng/mL | CLH [11]: 68 µL/min | microsomal CLint at 1 µM [12]: 60 µL/min/mg
SMILES: CCCC[C@@H](CCO)Nc1nc(N)ncc1OC
